Experimental findings from paper PMC9856672, “SGC-CAMKK2-1: A Chemical Probe for CAMKK2” (Cells, 2023) are described below.

Experiment [1] deals with T1, MET(Y1235D) (Homo sapiens, UniProt P08581, Y1235D).
T1 construct: purchased Eurofins DiscoverX KINOMEscan
As to the kind of experiment: KINOMEscan 1 μM, MET(Y1235D). Format: binding. Conditions: 1000 nM; Entrez MET; read-out: Percent Control. From the text:
(§1) Supplement cells-12-00287-s001.zip/File S2. KinomeScan data for the CAMKK2 probe and negative control.xlsx, sheet "SGC-CAMKK2-1" | column: Percent Control

For experiment [2], the target named is T2, PLK3 (Homo sapiens, UniProt Q9H4B4).
T2 construct: purchased Eurofins DiscoverX KINOMEscan
T2 sequence (Q9H4B4 whole entry): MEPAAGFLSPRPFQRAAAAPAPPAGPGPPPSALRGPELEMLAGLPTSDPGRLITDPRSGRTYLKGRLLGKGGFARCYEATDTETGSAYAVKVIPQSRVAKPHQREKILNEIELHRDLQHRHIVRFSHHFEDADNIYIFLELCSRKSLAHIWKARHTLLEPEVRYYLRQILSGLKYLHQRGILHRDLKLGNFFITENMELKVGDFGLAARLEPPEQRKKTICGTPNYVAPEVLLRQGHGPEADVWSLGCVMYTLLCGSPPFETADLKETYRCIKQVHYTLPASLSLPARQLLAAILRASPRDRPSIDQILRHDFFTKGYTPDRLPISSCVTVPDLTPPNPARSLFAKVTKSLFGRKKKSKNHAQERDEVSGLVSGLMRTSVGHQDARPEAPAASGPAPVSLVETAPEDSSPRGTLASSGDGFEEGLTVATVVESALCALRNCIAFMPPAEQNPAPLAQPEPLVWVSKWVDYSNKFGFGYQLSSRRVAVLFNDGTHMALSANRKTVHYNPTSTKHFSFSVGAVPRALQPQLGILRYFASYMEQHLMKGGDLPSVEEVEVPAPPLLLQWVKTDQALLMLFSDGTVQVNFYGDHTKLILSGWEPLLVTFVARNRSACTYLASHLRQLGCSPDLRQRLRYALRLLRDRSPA
The experiment is described as follows: DiscoverX KINOMEscan binding assay at 1 μM, PLK3. Conditions: Compound Concentration 1000 nM, read-out: Percent Control.
From the text: as §1

T1 sequence (P08581 25-1390 Y1235D): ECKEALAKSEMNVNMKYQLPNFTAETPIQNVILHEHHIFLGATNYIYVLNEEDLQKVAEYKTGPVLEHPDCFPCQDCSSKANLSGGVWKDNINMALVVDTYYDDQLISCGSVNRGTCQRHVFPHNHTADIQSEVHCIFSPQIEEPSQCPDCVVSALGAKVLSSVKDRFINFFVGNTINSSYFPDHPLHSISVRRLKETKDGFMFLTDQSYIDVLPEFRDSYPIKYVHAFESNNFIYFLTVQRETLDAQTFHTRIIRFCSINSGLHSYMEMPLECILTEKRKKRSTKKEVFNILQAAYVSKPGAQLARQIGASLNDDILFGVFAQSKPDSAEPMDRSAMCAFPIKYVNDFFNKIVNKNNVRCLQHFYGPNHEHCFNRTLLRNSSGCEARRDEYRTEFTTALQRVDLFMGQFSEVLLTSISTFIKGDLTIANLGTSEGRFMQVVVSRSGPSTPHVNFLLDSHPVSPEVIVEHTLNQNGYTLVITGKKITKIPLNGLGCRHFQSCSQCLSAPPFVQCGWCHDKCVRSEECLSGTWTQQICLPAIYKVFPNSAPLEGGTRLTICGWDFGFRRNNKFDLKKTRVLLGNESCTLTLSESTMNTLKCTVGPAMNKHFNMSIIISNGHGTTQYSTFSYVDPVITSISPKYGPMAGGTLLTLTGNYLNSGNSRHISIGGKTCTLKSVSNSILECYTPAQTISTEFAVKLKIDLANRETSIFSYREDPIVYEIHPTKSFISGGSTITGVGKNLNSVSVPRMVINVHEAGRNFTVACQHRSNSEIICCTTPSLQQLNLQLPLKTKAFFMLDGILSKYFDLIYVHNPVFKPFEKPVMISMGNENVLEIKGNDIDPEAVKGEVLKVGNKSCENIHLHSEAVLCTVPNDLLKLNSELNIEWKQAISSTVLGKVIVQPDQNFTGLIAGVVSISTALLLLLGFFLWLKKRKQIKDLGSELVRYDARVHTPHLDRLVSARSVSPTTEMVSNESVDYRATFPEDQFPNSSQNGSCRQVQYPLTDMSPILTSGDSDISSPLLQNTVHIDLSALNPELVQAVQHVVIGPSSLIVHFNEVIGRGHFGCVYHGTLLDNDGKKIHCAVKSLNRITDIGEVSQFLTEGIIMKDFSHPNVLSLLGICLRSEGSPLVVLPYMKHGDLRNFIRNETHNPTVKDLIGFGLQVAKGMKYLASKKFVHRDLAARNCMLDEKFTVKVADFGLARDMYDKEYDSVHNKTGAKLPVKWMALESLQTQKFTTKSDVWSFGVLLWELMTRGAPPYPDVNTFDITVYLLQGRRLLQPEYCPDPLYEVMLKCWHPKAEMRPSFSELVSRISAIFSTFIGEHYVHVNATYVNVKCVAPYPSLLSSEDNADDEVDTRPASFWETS

Consider `Cc1cccc(-c2cnc3occ(-c4ccc(C(=O)O)c(C5CCCC5)c4)c3c2)c1` [SGC-CAMKK2-1 (YL-36)], for which the results for the remaining binding at 1 µM in experiment [1] and in experiment [2] were 98% and 100%, respectively.
